What was measured:
Format in all cases: cell-based
human A375 cells = test: Protection of melanocytes from tunicamycin (ER stress) induced cell death, MTT assay, A375; settings: for % Recovery: compound at 25-30 μM, 6 h pretreatment, tunicamycin 100 ng/ml, total 72 h, cell growth over tunicamycin treatment; for EC50: Homo sapiens, A-375, different concentrations of compound along with tunicamycin, GraphPad Prism 7
Experimental: (§1) Compounds synthesized under present invention were tested for their in vitro potency. The potency was tested as their ability to protect melanocytes from ER stress induced cell death. ER stress was caused by the treatment of tunicamycin. The results obtained are summarized in Table-I, Table-II and Table-III for mouse B16F10 cells, human A375 cells and human primary melanocytes respectively. Table-IV and Table-V describes the potency of the compounds in effective concentration 50 (EC50) which means the dose of compound needed to get the 50% of maximum effect.
(§2) For the estimation of potency, mouse B16F10, human A375 or human primary melanocytes (NHEM) cells were pretreated in quadruplicates with these compounds for 6 hours. After 6 hours of incubation, tunicamycin was added at either 300 ng/ml for B16F10 cells or at 100 ng/ml for A375 cells or at 200 ng/ml for NHEM to induce stress mediated cell death and cultured further for a total of 72 hours. The vehicle (DMSO) concentration was kept constant for each well. After 72 hours of treatment, MTT assay was performed to measure the cell growth and vehicle control was kept at 100%. Effect of the treatment of compounds was calculated as cell growth over tunicamycin treatment. For the estimation of Effective Concentration 50 (EC50), cells were treated with different concentration of compounds along with tunicamycin and MTT assay was performed. The EC50 values were calculated by GraphPad Prism 7 software.

mouse B16F10 cells = test: Protection of melanocytes from tunicamycin (ER stress) induced cell death, MTT assay, B16F10; settings: for % Recovery: compound at 25-30 μM, 6 h pretreatment, tunicamycin 300 ng/ml, total 72 h, cell growth over tunicamycin treatment; for EC50: Mus musculus, B16-F10, different concentrations of compound along with tunicamycin, GraphPad Prism 7
Experimental: as §1, §2

[1] = tested on: human primary melanocytes (NHEM: Normal Human Epidermal Melanocytes); test: Protection of melanocytes from tunicamycin (ER stress) induced cell death, MTT assay, NHEM; settings: compound at 25-30 μM, 6 h pretreatment, tunicamycin 200 ng/ml, total 72 h, cell growth over tunicamycin treatment
Experimental: as §1, §2

SMILES	% Recovery (human A375 cells) [%]	% Recovery (mouse B16F10 cells) [%]	EC50 (human A375 cells) [µM]	EC50 (mouse B16F10 cells) [µM]	% Recovery [1] [%]
O=C(Cc1c[nH]c(-c2ccc(Cl)cc2)n1)NCCc1ccc(F)cc1 [Compound 001, 2-(2-(4-chlorophenyl)-1H-imidazol-4-yl)-N-(4-fluorophenethyl)acetamide]	25	52			
CCCC(=O)NCCc1c[nH]c(-c2ccc(Cl)cc2)n1 [Compound 002, N-(2-(2-(4-chlorophenyl)-1H-imidazol-4-yl)ethyl)butyramide]	22	58	20.6	2.71	17
O=C(Cc1c[nH]c(-c2ccc(Cl)cc2)n1)NCCN1CCOCC1 [Compound 003, 2-(2-(4-chlorophenyl)-1H-imidazol-4-yl)-N-(2-morpholinoethyl)acetamide]	13	17			
CCCCNC(=O)Cc1c[nH]c(-c2ccc(Cl)cc2)n1 [Compound 004, N-butyl-2-(2-(4-chlorophenyl)-1H-imidazol-4-yl)acetamide]	32	22			
CCCCNC(=O)Cc1cn(C)c(-c2ccc(Cl)cc2)n1 [Compound 005, N-butyl-2-(2-(4-chlorophenyl)-1-methyl-1H-imidazol-4-yl)acetamide]		38			
Cn1cc(CC(=O)NCCN2CCOCC2)nc1-c1ccc(Cl)cc1 [Compound 006, 2-(2-(4-chlorophenyl)-1-methyl-1H-imidazol-4-yl)-N-(2-morpholinoethyl)acetamide]		31			
Cn1cc(CC(=O)Nc2cccc(C(F)(F)F)c2)nc1-c1ccc(Cl)cc1 [Compound 007, 2-(2-(4-chlorophenyl)-1-methyl-1H-imidazol-4-yl)-N-(3-(trifluoromethyl)phenyl)acetamide]	19	38			
CC(C)OCCCNC(=O)Cc1cn(C)c(-c2ccc(Cl)cc2)n1 [Compound 008, 2-(2-(4-chlorophenyl)-1-methyl-1H-imidazol-4-yl)-N-(3-isopropoxypropyl)acetamide]		39			
O=C(Cc1c[nH]c(-c2ccc(Cl)cc2)n1)Nc1cccc(C(F)(F)F)c1 [Compound 009, 2-(2-(4-chlorophenyl)-1H-imidazol-4-yl)-N-(3-(trifluoromethyl)phenyl)acetamide]		36			
CC(C)OCCCNC(=O)Cc1c[nH]c(-c2ccc(Cl)cc2)n1 [Compound 010, 2-(2-(4-chlorophenyl)-1H-imidazol-4-yl)-N-(3-isopropoxypropyl)acetamide]	17	12			
O=C(Cc1c[nH]c(-c2ccc(Cl)cc2)n1)Nc1ccc(F)cc1 [Compound 011, 2-(2-(4-chlorophenyl)-1H-imidazol-4-yl)-N-(4-fluorophenyl)acetamide]		18			
O=C(Cc1c[nH]c(-c2ccc(Cl)cc2)n1)N1CCC(F)(F)CC1 [Compound 012, 2-(2-(4-chlorophenyl)-1H-imidazol-4-yl)-1-(4,4-difluoropiperidin-1-yl)ethan-1-one]		15			
Cn1cc(CC(=O)Nc2ccc(F)cc2)nc1-c1ccc(Cl)cc1 [Compound 013, 2-(2-(4-chlorophenyl)-1-methyl-1H-imidazol-4-yl)-N-(4-fluorophenyl)acetamide]		40			
O=C(Cc1c[nH]c(-c2ccc(Cl)cc2)n1)Nc1ccc(C(F)(F)F)cc1 [Compound 014, 2-(2-(4-chlorophenyl)-1H-imidazol-4-yl)-N-(4-(trifluoromethyl)phenyl)acetamide]	36	52	33.3		
O=C(Cc1c[nH]c(-c2ccc(Cl)cc2)n1)N1CCCC1 [Compound 016, 2-(2-(4-chlorophenyl)-1H-imidazol-4-yl)-1-(pyrrolidin-1-yl)ethan-1-one]	17	14			
Cn1cc(CC(=O)N2CCCC2)nc1-c1ccc(Cl)cc1 [Compound 017, 2-(2-(4-chlorophenyl)-1-methyl-1H-imidazol-4-yl)-1-(pyrrolidin-1-yl)ethan-1-one]		29			
O=C(Cc1c[nH]c(-c2ccc(Cl)cc2)n1)NC1CCCC1 [Compound 019, 2-(2-(4-chlorophenyl)-1H-imidazol-4-yl)-N-cyclopentylacetamide]		36			

SMILES	% Recovery (human A375 cells) [%]	% Recovery (mouse B16F10 cells) [%]	EC50 (human A375 cells) [µM]	EC50 (mouse B16F10 cells) [µM]	% Recovery [1] [%]
CN1CCN(C(=O)Cc2c[nH]c(-c3ccc(Cl)cc3)n2)CC1 [Compound 020, 2-(2-(4-chlorophenyl)-1H-imidazol-4-yl)-1-(4-methylpiperazin-1-yl)ethan-1-one]		17			
CN1CCN(C(=O)Cc2cn(C)c(-c3ccc(Cl)cc3)n2)CC1 [Compound 021, 2-(2-(4-chlorophenyl)-1-methyl-1H-imidazol-4-yl)-1-(4-methylpiperazin-1-yl)ethan-1-one]				55.7	
Cn1cc(CC(=O)NCCc2ccc(F)cc2)nc1-c1ccc(Cl)cc1 [Compound 022, 2-(2-(4-chlorophenyl)-1-methyl-1H-imidazol-4-yl)-N-(4-fluorophenethyl)acetamide]	18	44		13.7	
CC(C)(C)CC(=O)NCCc1c[nH]c(-c2ccc(Cl)cc2)n1 [Compound 025, N-(2-(2-(4-chlorophenyl)-1H-imidazol-4-yl)ethyl)-3,3-dimethylbutanamide]	57	55	14.2	3.3	41
CCC(C)(C)C(=O)NCCc1c[nH]c(-c2ccc(Cl)cc2)n1 [Compound 026, N-(2-(2-(4-chlorophenyl)-1H-imidazol-4-yl)ethyl)-2,2-dimethylbutanamide]	50	15	18.6	8.6	30
CC(C)CC(=O)NCCc1c[nH]c(-c2ccc(Cl)cc2)n1 [Compound 027, N-(2-(2-(4-chlorophenyl)-1H-imidazol-4-yl)ethyl)-3-methylbutanamide]	56		14.9		33
O=C(NCCc1c[nH]c(-c2ccc(Cl)cc2)n1)C1CC1 [Compound 046, N-(2-(2-(4-chlorophenyl)-1H-imidazol-4-yl)ethyl)cyclopropanecarboxamide]	63	27	7.9		10
O=C(NCCc1c[nH]c(-c2ccc(Cl)cc2)n1)C1CCC1 [Compound 050, N-(2-(2-(4-chlorophenyl)-1H-imidazol-4-yl)ethyl)cyclobutanecarboxamide]	27	35	33.4		5
O=C(NCCc1c[nH]c(-c2ccc(Cl)cc2)n1)c1ccc(F)cc1 [Compound 051, N-(2-(2-(4-chlorophenyl)-1H-imidazol-4-yl)ethyl)-4-fluorobenzamide]	50	22	5.9		35
O=C(NCCc1c[nH]c(-c2ccc(Cl)cc2)n1)C12CC3CC(CC(C3)C1)C2 [Compound 064, (3r,5r,7r)-N-(2-(2-(4-chlorophenyl)-1H-imidazol-4-yl)ethyl)adamantane-1-carboxamide]	65		4.9		38
O=C(NCCc1c[nH]c(-c2ccc(Cl)cc2Cl)n1)c1ccc(C(F)(F)F)cc1 [Compound 066, N-(2-(2-(2,4-dichlorophenyl)-1H-imidazol-4-yl)ethyl)-4-(trifluoromethyl)benzamide]	44	50	12.1	7.2	
CCCCCC(=O)NCCc1c[nH]c(-c2ccc(Cl)cc2)n1 [Compound 067, N-(2-(2-(4-chlorophenyl)-1H-imidazol-4-yl)ethyl)hexanamide]	54	40	3.1	9.7	
CCCCCCCC(=O)NCCc1c[nH]c(-c2ccc(Cl)cc2)n1 [Compound 068, N-(2-(2-(4-chlorophenyl)-1H-imidazol-4-yl)ethyl)octanamide]	42	21	9	33.8	
O=C(NCCc1c[nH]c(-c2cc(Cl)cc(Cl)c2)n1)c1cc(F)cc(F)c1 [Compound 069, N-(2-(2-(3,5-dichlorophenyl)-1H-imidazol-4-yl)ethyl)-3,5-difluorobenzamide]	88		1.2		
O=C(NCCc1c[nH]c(-c2ccc(Cl)cc2Cl)n1)c1ccc(F)cc1 [Compound 070, N-(2-(2-(2,4-dichlorophenyl)-1H-imidazol-4-yl)ethyl)-4-fluorobenzamide]	44	51	8.1	11.9	
O=C(NCCc1c[nH]c(-c2ccc(Cl)cc2Cl)n1)c1cc(F)cc(F)c1 [Compound 071, N-(2-(2-(2,4-dichlorophenyl)-1H-imidazol-4-yl)ethyl)-3,5-difluorobenzamide]	39	58	10.5	10.9	

Reference: patent US12378203B2, “Imidazole compounds, process for the synthesis and uses thereof” (AHAMMUNE BIOSCIENCES PRIVATE LIMITED, priority 2018, dated 2025)
